“And” between values parts separate entries of the source, which are not always exact repeats. Equal entries are not always repeated.
Tests used:
[1] = Pharmacokinetic analysis in mice; assay type: in vivo; settings: for AUC(0-t) / Cmax / Tmax / half-life: mouse, serum
Method: Pharmacokinetic analysis. TDRL-505 was administered to mice at 200 mg/kg either ip or po and blood drawn at 1, 2, 4, 8, 24 and 48 hours post treatment. Serum concentration of TDRL-505 was measured using a HPLC MS/MS protocol and PK parameters analysis using on-compartmental analysis.
Based on the in vivo anticancer activity of TRL-505 a comparison of pharmacokinetic parameters with both ip and po dosing regimens was made. Naive mice were given a single dose and as described in Table 3, blood was drawn at various time intervals and TRDL-505 concentration determined via a HPCL/MSMS protocol developed for this compound.

[2] = target: Human RPA (Homo sapiens (Human), UniProt P27694); assay: EMSA of inhibition of RPA binding to ssDNA; settings: for IC50: 25 nM RPA, 34-base DNA, 4 parameter logistic fit, read-out: IC50 (μM) In vitro
Method: Small molecule inhibitors were obtained from ChemDiv and resuspended in DMSO. Compound TDLR-505 was independently synthesized and structure confirmed by mass spectrometry analysis. Human RPA was purified using an E. coli over expression system as previously described (7). EMSAs were performed in 20 μL reactions containing 25 nM RPA, 25 nM 5′[^32P]-labeled 34-base […] DNA as previously described (7). The final concentration of DMSO was 1%.
(§1) Referring now to TABLE 1, the in vitro IC50 was determined by EMSA analysis as described in FIG. 1A. The cellular IC50 value was determined by treating H460 cells with the indicated compounds and analyzing annexinV/PI staining as described in Methods. The in vitro and cellular data was analyzed using standard 4 parameter logistic-curve. The IC50 values and standard error of the fit were determined from this analysis.
Referring now to FIGS. 2C, D and E, EMSA analysis of compound TDLR-505, briefly, increasing concentrations of compound TDRL-505 were pre-incubated with RPA and DNA binding activity was assessed via EMSA using a 34-base ssDNA substrate. Referring now to FIG. 2D, the average and standard deviation of each point are presented. The data was fit to a standard 4 parameter logistic curve with an N=4.

[3] = tested on: A549 NSCLC cell line; assay: Cytotoxicity in A549 cells; assay type: cell-based; settings: data not shown
[4] = tested on: peripheral blood mononuclear cells (PBMCs); assay: Cytotoxicity in freshly isolated PBMCs; assay type: cell-based; settings: non-cancerous cells, data not shown
[5] = tested on: NOD/SCID mice; settings: mouse, in vivo
Method: Mice were monitored for signs of overt toxicity and bodyweights measured three times per week. Mice were sacrificed and gross necroscopy performed to assess organ weights and inspected for signs of toxicity. […] NOD/SCID mice were then implanted with 5×10^6 H460 cells in 0.2 ml of 50% Matrigel subcutaneously. Tumors were allowed to develop for 7 days and TDRL-505 was administered via oral gavage 2× per week for one week. Tumor volumes were calculated by measuring the width and the length of the tumors and using these measurements in the equation: vol.=1×w^2/2.
Referring now to Table 3. […] Oral dosing in 0.1% Tween 80/methylcellulose was also well tolerated up to 800 mg/kg.

[6] = tested on: RPA; assay: Indirect immunofluorescence of RPA in H460 cells; assay type: cell-based, human; settings: 50 μM, 3 hours
Method: H460 cells were plated on chamber slides (LabTek) as described above. Cells were then treated for 3 hours with either 50 μM of compound TDLR-505 or vehicle as indicated and following treatment, cells were fixed in 4% paraformaldehyde at 25° C. for 3 minutes followed by washing in 0.2% Triton X-100 for 2 minutes at 4° C. The slides were then blocked in 15% FBS in PBS for 1 hour at 25° C. and then incubated with anti-RPA 34 primary antibody (Neomarkers) at a dilution of 1:500 in 15% FBS for 1 hour. Slides were then washed 3×10 minutes with 15% FBS and then incubated with Alexa Fluor-594 goat-anti-mouse secondary antibody (Invitrogen) at a dilution of 1:300 for 1 hour. Slides were again washed and stained with 300 nM DAPI diluted in PBS-EDTA for five minutes. […] Slides were visualized and images analyzed and quantified using ImageJ software.
These cellular effects seen following treatment with compound TDLR-505 correlate with an inability of RPA to interact with DNA which could then result in numerous possibilities including degradation or redistribution of RPA within the cell. […] Referring now to FIG. 4C, H460 cells were treated with 50 μM compound TDLR-505 or vehicle for 3 hours and analyzed for RPA expression and localization by indirect immunofluorescence using an Alexa Fluor594 secondary antibody (red). […] RPA expression was assessed via western blot analysis probing for the p34 subunit. […]

[7] = tested on: RPA p34; assay: Western blot of RPA p34 in H460 cells; assay type: cell-based, human; settings: 100 μM, 6 hours, without or with 25 μM etoposide
Method: H460 cells were plated and treated with either vehicle or 100 μM compound TDLR-505 in the presence or absence of 25 μM etoposide for 6 hours and then processed for western blot analysis using a RIPA lysis and extraction procedure. RPA was detected with an anti-RPA p34 antibody (Neomarkers) and goat anti-mouse-HRP secondary (Santa Cruz). Bands were visualized using chemiluminescence detection.
These cellular effects seen following treatment with compound TDLR-505 correlate with an inability of RPA to interact with DNA which could then result in numerous possibilities including degradation or redistribution of RPA within the cell. Indirect immunofluorescence was used to assess how inhibition of RPA binding influences cellular localization. Referring now to FIG. 4C, H460 cells were treated with 50 μM compound TDLR-505 or vehicle for 3 hours and analyzed for RPA expression and localization by indirect immunofluorescence using an Alexa Fluor594 secondary antibody (red). Slides were counter stained with DAPI (blue) and images merged. Magnification of the boxed cells is presented below the low magnification images. […] (FIG. 4C). […] Referring now to FIG. 4D, H460 cells were treated with vehicle or 100 μM compound TDLR-505 without or with etoposide (25 μM) as indicated in the figure. RPA expression was assessed via western blot analysis probing for the p34 subunit. […]

[8] = tested on: H460 cells; assay: H460 NSCLC mouse xenograft model; assay type: in vivo, NOD/SCID mice; settings: oral dosing
Description: Mice that had been implanted with a human NSCLC tumor cells were subjected to a regime of oral dosing. The tumors were allowed to grow to 100 mm3 after which treatment with TDRL-505 or vehicle was commenced.

[9] = tested on: H460 cells; assay: Combination index analysis with cisplatin or etoposide; assay type: cell-based, human; settings: 48 hours
Method: In addition to its essential role in DNA replication, RPA is required for the repair of bulky DNA adducts as well as DNA breaks induced by various types of exogenous and endogenous agents. […] In order to determine the effect of RPA inhibition on cellular sensitivity to cisplatin, the combination index (CI) (20) was measured. Referring now to FIG. 6. As illustrated in this experiment, compound TDLR-505 acts synergistically with both cisplatin and etoposide in H460 cells. H460 cells were treated with increasing fractions of the IC50 concentration of either cisplatin or etoposide with compound TDLR-505 for 48 hours. After treatment, cells were harvested and analyzed by annexin V/PI flow cytometry. Open circles indicate CI analysis of cisplatin with TDLR-505 and closed circles represent etoposide with TDLR-505. The combination index analysis was performed as previously described (20). The data are presented as the average±SD from (N=3). When cisplatin and compound TDLR-505 were used in combination, cell viability was decreased to a level that was greater than that induced by either agent alone, resulting in a synergy between the two compounds and CI of 0.4 at the highest fraction of cells affected. […] The ability of compound TDLR-505 to synergize with etoposide was also examined. Etoposide induces replication fork arrest and DNA damage response, both cellular processes that require RPA (21).

[10] = tested on: H460 NSCLC cells; assay: Cell cycle distribution by PI flow cytometry; assay type: cell-based, human
Method: H460 cells were analyzed for apoptosis using an Annexin V-FITC/Propidium iodide (PI) Vybrant Apoptosis Assay Kit (Invitrogen), according to manufacturer's instructions. Cells were plated at a density of 1×10^4 cells per cm^2 and allowed to adhere for 24 hours and then treated with compound TDLR-505 for 48 hours. Following plating and treatment of H460 cells as described above, adherent and non-adherent cells were collected, processed, and analyzed on a BD FACScan flow cytometer. Data was analyzed using WinMDI software (http://facs.scripps.edu/software.html). Cell cycle analysis was performed by PI staining Briefly, cells were plated and treated with compound collected and then washed twice with PBS-EDTA supplemented with 1% BSA. Cells were fixed in 70% EtOH at −20° C. while vortexing followed by incubation on ice for 30 minutes. […] Cells were analyzed on a Becton Dickinson FACScan flow cytometer. Cells were gated and analyzed on a histogram with events plotted against the FL2-A parameter. Cell cycle distribution was analyzed using ModFit software. […] Cells were harvested and analyzed for cell cycle distribution as described above.
Referring now to FIG. 5A. H460 NSCLC cells were treated with 0 and 75 μM of compound TDLR-505 for 48 hours and then analyzed for cell cycle distribution using flow cytometry. […] Cells were then harvested and analyzed for cell cycle distribution using flow cytometry. […]

[11] = tested on: H460 NSCLC cell line; assay: Crystal violet staining cell viability assay; assay type: cell-based; settings: Homo sapiens, NCI-H460; data not shown
[12] = tested on: H460 NSCLC cell line; assay: Annexin V/PI flow cytometry, induction of cell death; assay type: cell-based, human; settings: Homo sapiens, NCI-H460; H460 cells, 48 hour exposure, annexinV/PI staining; read-out: IC50 (μM) Cellular
Method: H460 cells were analyzed for apoptosis using an Annexin V-FITC/Propidium iodide (PI) Vybrant Apoptosis Assay Kit (Invitrogen), according to manufacturer's instructions. Cells were plated at a density of 1×10^4 cells per cm^2 and allowed to adhere for 24 hours and then treated with compound TDLR-505 for 48 hours. Following plating and treatment of H460 cells as described above, adherent and non-adherent cells were collected, processed, and analyzed on a BD FACScan flow cytometer. Data was analyzed using WinMDI software (http://facs.scripps.edu/software.html). Cell cycle analysis was performed by PI staining Briefly, cells were plated and treated with compound collected and then washed twice with PBS-EDTA supplemented with 1% BSA. Cells were fixed in 70% EtOH at −20° C. while vortexing followed by incubation on ice for 30 minutes. Cells were then collected and stained with PI solution (10 μg/mL PI and 25 μg/mL RNaseA in PBS-EDTA supplemented with 1% BSA). Cells were analyzed on a Becton Dickinson FACScan flow cytometer. Cells were gated and analyzed on a histogram with events plotted against the FL2-A parameter. Cell cycle distribution was analyzed using ModFit software. G2 arrest was induced by treatment with 0.8 μg/mL nocodazole for 12 hours (10). Cells were then washed with PBS and treated with either vehicle or compound TDLR-505 (100 μM). Cells were harvested and analyzed for cell cycle distribution as described above.
as §1
Referring now to FIGS. 4A, 4B, 4C and 4D, the effects of compound TDRL-505 on induction of cell death and cell cycle progression in a H460 NSCLC cell line was measured. Briefly, H460 cells were treated with compound TDRL-505 for 48 hours and analyzed for cell viability via staining with AnnexinV/PI and presented as dot plots (see FIG. 3A). Referring now to FIG. 4B, the data from FIG. 4A was quantified and the percentage of Annexin-/PI-cells (lower left quadrant), indicating live cells, was calculated. The average±SD (N=4) are presented and the data was fit to a 4-parameter logistic curve.

[13] = 200 mg/Kg PO, Methylcellulose/DMSO

Sequence of Human RPA (P27694 whole entry): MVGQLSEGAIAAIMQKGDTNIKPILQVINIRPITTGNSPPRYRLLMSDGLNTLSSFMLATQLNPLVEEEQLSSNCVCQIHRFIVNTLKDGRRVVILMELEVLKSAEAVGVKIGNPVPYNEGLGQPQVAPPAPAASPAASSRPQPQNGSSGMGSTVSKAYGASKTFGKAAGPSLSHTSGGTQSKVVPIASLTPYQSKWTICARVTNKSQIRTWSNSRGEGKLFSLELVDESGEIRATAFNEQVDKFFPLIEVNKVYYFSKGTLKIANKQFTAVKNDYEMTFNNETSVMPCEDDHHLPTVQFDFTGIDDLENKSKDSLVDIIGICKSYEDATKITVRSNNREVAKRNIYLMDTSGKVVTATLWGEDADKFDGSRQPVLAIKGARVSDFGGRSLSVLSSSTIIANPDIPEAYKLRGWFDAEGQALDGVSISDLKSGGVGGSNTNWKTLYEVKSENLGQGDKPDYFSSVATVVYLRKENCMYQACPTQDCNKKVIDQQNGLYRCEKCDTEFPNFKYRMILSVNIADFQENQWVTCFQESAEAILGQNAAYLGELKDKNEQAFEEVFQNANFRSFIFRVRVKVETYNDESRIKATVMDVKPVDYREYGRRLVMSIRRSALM
Sequence of Human RPA (P15927 whole entry partner): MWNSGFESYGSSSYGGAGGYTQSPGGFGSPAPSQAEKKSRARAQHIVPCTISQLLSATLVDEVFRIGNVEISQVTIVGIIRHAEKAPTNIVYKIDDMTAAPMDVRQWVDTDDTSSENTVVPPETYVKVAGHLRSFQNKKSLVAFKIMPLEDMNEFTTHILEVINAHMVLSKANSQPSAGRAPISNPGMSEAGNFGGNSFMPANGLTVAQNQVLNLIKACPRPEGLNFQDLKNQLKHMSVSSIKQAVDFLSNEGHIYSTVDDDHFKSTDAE
Sequence of Human RPA (P35244 whole entry partner): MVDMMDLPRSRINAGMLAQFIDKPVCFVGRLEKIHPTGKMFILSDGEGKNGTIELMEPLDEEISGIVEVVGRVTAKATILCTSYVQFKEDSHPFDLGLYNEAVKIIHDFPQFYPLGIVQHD

For `CCOc1ccc2cc(C3CC(c4ccc(Br)cc4)=NN3C(=O)CCC(=O)O)c(Cl)nc2c1` (stereo not drawn) [TDRL-505], the Cl/F ([1]; 200 mg/Kg IP, Tween80/DMSO) was 8.29 mL/h, the Vdss ([1]; 200 mg/Kg IP, Tween80/DMSO) was 0.11 L and the Cl/F [1, 13] was 202.33 mL/h. The Vdss [1, 13] was 0.88 L, the AUC(0-t) ([1]; 200 mg/Kg IP, Tween80/DMSO) was 577 µg·h/mL and the Cmax ([1]; 200 mg/Kg IP, Tween80/DMSO) was 31700 ng/mL. The Tmax ([1]; 200 mg/Kg IP, Tween80/DMSO) was 8 h, the half-life ([1]; 200 mg/Kg IP, Tween80/DMSO) was 7.13 h and the AUC(0-t) [1, 13] was 25 µg·h/mL. For the same compound, the Cmax [1, 13] was 6400 ng/mL, the Tmax [1, 13] was 1 h and the half-life [1, 13] was 2.62 h. The IC50 [2] was 13 µM and 12.9 µM, the “cytotoxic effect in A549 cells (in words)” value [3] was “A similar result” and the “cytotoxic activity in PBMCs (in words)” value [4] was “minimal cytotoxic activity”. The “well tolerated dose, IP” value ([5]; ip) was “up to 400 mg/kg”, the “well tolerated dose, oral” value ([5]; po) was “up to 800 mg/kg” and the “intensity of RPA staining vs vehicle (in words)” value [6] was “decrease in the intensity of RPA staining”. The “cells with RPA staining intensity >70% of the maximum” value ([6]; vehicle 23%) was 15%, the “RPA expression (p34 western blot, in words)” value [7] was “not degraded or reduced in expression” and the “tumor growth in individual mice vs vehicle (in words)” value ([8]; FIG. 7B) was “significant reduction in tumor growth”. For the same compound, the “tumor growth vs vehicle control (in words)” value ([8]; group mean, FIG. 7A) was “reduction in tumor growth”, the “interaction with cisplatin at lower fractions of cells affected (in words)” value ([9]; CI values greater than one) was “additive and then antagonistic” and the “interaction with etoposide (in words)” value ([9]; all fractions of cells affected) was “synergistic activity”. For the same compound, the “combination index (CI) with cisplatin” value ([9]; highest fraction of cells affected) was 0.4, the “cell cycle distribution, asynchronous culture (in words)” value ([10]; 75 μM, 48 hours) was “increase in the proportion of cells in G1-phase” and the “cell cycle progression after release from nocodazole G2 arrest (in words)” value ([10]; 100 μM, 4, 8 and 12 hours) was “did not enter S-phase even 12 hours post release”. For the same compound, the IC50 [11] was 64 µM and the IC50 [12] was 30.8 ± 1.7 µM.
For `CCN(CC)c1ccc(C2CC(c3ccc(Br)cc3)=NN2C(=O)CCC(=O)O)cc1` (stereo not drawn) [TDRL-518], the IC50 [2] was > 100 µM and the inhibition at 100 µM ([2]; 100 μM, read-out: inhibition at the highest concentration tested) was 9%.
Work on `Cc1ccc(C2=NN(C(=O)CCC(=O)O)C(c3cn(-c4ccccc4)nc3-c3ccc(C)cc3)C2)cc1` (stereo not drawn) [TDRL-520] yielded an IC50 [2] of 20.3 ± 10.7 µM and an IC50 [12] of 49.9 ± 2.5 µM.
